{"source": "patent US20070282012A1", "about": "(priority 2004, published 2007)", "key": {"normal subjects [1]": {"test_system": "normal subjects", "parameters": "species or system human", "conditions": "in vivo"}, "[2]": {"test_system": "subjects regularly wearing SCL", "parameters": "species or system human", "conditions": "in vivo"}, "normal subjects [3]": {"test_system": "normal subjects", "parameters": "species or system human", "conditions": "in vivo", "remark": "listed apart in the source"}, "[4]": {"test_system": "subjects regularly wearing SCL", "parameters": "species or system human", "conditions": "in vivo", "remark": "listed apart in the source"}, "tear deficient dry eyes [5]": {"test_system": "tear deficient dry eyes", "parameters": "species or system human", "conditions": "in vivo"}, "normal subjects [6]": {"test_system": "normal subjects", "parameters": "species or system human", "conditions": "in vivo", "remark": "listed apart in the source"}, "[7]": {"test_system": "patients with tear deficient dry eye", "conditions": "human, in vivo"}, "normal subjects [8]": {"test_system": "normal subjects", "conditions": "in vivo"}, "[9]": {"test_system": "patients with tear deficient dry eye", "conditions": "human, in vivo", "remark": "listed apart in the source"}, "[10]": {"test_system": "patients with tear deficient dry eye", "conditions": "in vivo"}, "tear deficient dry eyes [11]": {"test_system": "tear deficient dry eyes", "parameters": "species or system human", "conditions": "in vivo", "remark": "listed apart in the source"}, "[12]": {"test_system": "subjects regularly wearing SCL", "parameters": "species or system human", "conditions": "in vivo", "remark": "listed apart in the source"}}, "note": "Where “and” joins values, the source holds several entries; their conditions need not be identical. Equal entries are not always repeated.", "data": [{"substance": "Thiopropanal S-Oxide [lacrimatory component]", "values": [{"measurement": "reflex lacrimation by nasal exposure", "setting": "normal subjects [1]", "result": "no reflex lacrimation is induced"}, {"measurement": "R (radius of tear meniscus curvature), mean value±standard deviation", "setting": "[2]", "result": "0.54±0.14", "unit": "mm"}, {"measurement": "degree of stimulation", "setting": "normal subjects [3]", "result": 0}, {"measurement": "mean degree of the stimulation, four-level category rating", "setting": "normal subjects [3]", "result": "3 and 1.5"}, {"measurement": "mean time taken for the stimulation to be felt (ST)", "setting": "normal subjects [3]", "result": "9.8 s and 14.5 s and 13.3 s"}, {"measurement": "time taken for stimulation to be felt (ST), mean value±standard deviation", "setting": "normal subjects [3]", "result": "9.8 ± 1.5", "unit": "s"}, {"measurement": "grades of specular image of the tears on SCL", "setting": "[4]", "result": "1.4±0.5"}, {"measurement": "extensibility of the tear lipid layer, Grade, mean value±standard deviation", "setting": "tear deficient dry eyes [5]", "result": "1.5±0.6"}, {"measurement": "lacrimation in the contralateral non-exposed eye", "setting": "normal subjects [6]", "result": "lacrimation is induced in the contralateral non-exposed eye"}, {"measurement": "time after exposure by which ΔR reached the maximum", "setting": "normal subjects [6]", "result": "≤ 1", "unit": "min"}, {"measurement": "ΔR (2 minutes)", "setting": "normal subjects [6]", "result": "0.25±0.14", "unit": "mm"}, {"measurement": "ΔR (10 minutes)", "setting": "normal subjects [6]", "result": "~0", "unit": "mm"}, {"measurement": "ΔR in the contralateral non-exposed eye", "setting": "normal subjects [6]", "result": 0.30, "unit": "mm"}, {"measurement": "time after exposure at which ΔR was maximum", "setting": "[7]", "result": 2, "unit": "min"}, {"measurement": "ΔR (5 minutes)", "setting": "[7]", "result": "~0", "unit": "mm"}, {"measurement": "adverse or lingering effects of the exposure on the ocular surface", "setting": "normal subjects [8]", "result": "not found"}, {"measurement": "degree of the stimulation, four-level category rating", "setting": "[9]", "result": "zero"}, {"measurement": "mean degree of the stimulation, four-level category rating", "setting": "[9]", "result": "1.8 and 1.7"}, {"measurement": "time taken for stimulation to be felt (ST), mean value±standard deviation", "setting": "[9]", "result": "18.8 ± 9.3 s and 21.4 ± 9.8 s"}, {"measurement": "effects on the ocular surface epithelium", "setting": "[10]", "result": "No effects on the ocular surface epithelium was observed"}, {"measurement": "radius of tear meniscus curvature R, mean value±standard deviation", "setting": "tear deficient dry eyes [11]", "result": "0.34±0.20", "unit": "mm"}, {"measurement": "NIBUT", "setting": "[12]", "result": "9.1 ± 2.1", "unit": "s"}]}]}
